Test results reported in the supplement of paper PMC10307832.

Assays:
Experiment in all cases: relative viability (nuclei count vs DMSO), 5 days (fraction); higher = more cells survive
4EGI-1 + Crizotinib = compound: O=C(O)C(Cc1ccccc1[N+](=O)[O-])=NNc1nc(-c2ccc(Cl)c(Cl)c2)cs1 (mixture of isomers) [4EGI-1] + C[C@@H](Oc1cc(-c2cnn(C3CCNCC3)c2)cnc1N)c1c(Cl)ccc(F)c1Cl [Crizotinib] (partner 1 µM)
Summary of the method: (§1)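 Lung cancer cell lines were pin-tool dosed in 1536-well plates on the day after seeding, with either a lone drug or a fixed anchor-drug dose plus five library-drug doses (not always all listed) in √10 steps. Nuclei were counted on 4× images after 5 days. Relative viability is the ratio of treated-well to vehicle-well nuclei counts, with each value a median of duplicate plates.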

XMD8-85 + Palbociclib = compound: CN1CCN(CC1)C2=CC(=C(C=C2)NC3=NC=C4C(=N3)N(C5=CC=CC=C5C(=O)N4C)C)OC [XMD8-85] + CC(=O)c1c(C)c2cnc(Nc3ccc(N4CCNCC4)cn3)nc2n(C2CCCC2)c1=O [Palbociclib] (partner 0.5 µM)
Summary of the method: as §1

XMD8-85 + Navitoclax = compound: CN1CCN(CC1)C2=CC(=C(C=C2)NC3=NC=C4C(=N3)N(C5=CC=CC=C5C(=O)N4C)C)OC [XMD8-85] + CC1(C)CCC(c2ccc(Cl)cc2)=C(CN2CCN(c3ccc(C(=O)NS(=O)(=O)c4ccc(N[C@H](CCN5CCOCC5)CSc5ccccc5)c(S(=O)(=O)C(F)(F)F)c4)cc3)CC2)C1 [Navitoclax] (partner 0.5 µM)
Summary of the method: as §1

4EGI-1 + Linsitinib = compound: O=C(O)C(Cc1ccccc1[N+](=O)[O-])=NNc1nc(-c2ccc(Cl)c(Cl)c2)cs1 (mixture of isomers) [4EGI-1] + C[C@]1(O)C[C@@H](c2nc(-c3ccc4ccc(-c5ccccc5)nc4c3)c3c(N)nccn32)C1 [Linsitinib] (partner 1 µM)
Summary of the method: as §1

Row | Cell Line | relative viability (4EGI-1 + Crizotinib; first compound 0.5 µM) | relative viability (4EGI-1 + Crizotinib; first compound 1.581 µM) | relative viability (4EGI-1 + Crizotinib; first compound 5 µM) | relative viability (4EGI-1 + Crizotinib; first compound 15.81 µM) | relative viability (4EGI-1 + Crizotinib; first compound 50 µM) | relative viability (XMD8-85 + Palbociclib; first compound 0.08 µM) | relative viability (XMD8-85 + Palbociclib; first compound 0.253 µM) | relative viability (XMD8-85 + Palbociclib; first compound 0.8 µM) | relative viability (XMD8-85 + Palbociclib; first compound 2.53 µM) | relative viability (XMD8-85 + Palbociclib; first compound 8 µM) | relative viability (XMD8-85 + Navitoclax; first compound 0.08 µM) | relative viability (XMD8-85 + Navitoclax; first compound 0.253 µM) | relative viability (XMD8-85 + Navitoclax; first compound 0.8 µM) | relative viability (XMD8-85 + Navitoclax; first compound 2.53 µM) | relative viability (XMD8-85 + Navitoclax; first compound 8 µM) | relative viability (4EGI-1 + Linsitinib; first compound 0.5 µM) | relative viability (4EGI-1 + Linsitinib; first compound 1.581 µM) | relative viability (4EGI-1 + Linsitinib; first compound 5 µM) | relative viability (4EGI-1 + Linsitinib; first compound 15.81 µM) | relative viability (4EGI-1 + Linsitinib; first compound 50 µM)
1 | HCC-44 | 0.841 | 0.6 | 0.8 | 0.656 | 0.186 | 0.993 | 1.06 | 1.08 | 0.993 | 0.946 | 1.03 | 1.03 | 1.05 | 0.796 | 0.434 | 0.708 | 0.361 | 0.681 | 0.585 | 0.406
2 | HCC-366 | 0.641 | 0.277 | 0.605 | 0.506 | 0.529 | 0.316 | 0.298 | 0.375 | 0.291 | 0.196 | 1.12 | 1.06 | 1.27 | 1.06 | 0.63 | 0.791 | 0.697 | 0.741 | 0.772 | 0.382
3 | PC-14 | 1.08 | 0.617 | 0.875 | – | 0.907 | 0.552 | 0.44 | 0.596 | 0.404 | 0.167 | 1.01 | 1.02 | 1.03 | 0.959 | 0.628 | 1.01 | 0.741 | 0.983 | – | 0.94
4 | NCI-H647 | 1.05 | 1.05 | 1.16 | 0.656 | 0.155 | 0.342 | 0.325 | 0.406 | 0.523 | 0.282 | 1.35 | 1.19 | 1.27 | 1.14 | 0.556 | 1.17 | 1.12 | 1.22 | 1.07 | 0.202
5 | 201T | 1.06 | 0.98 | 1.01 | 1.01 | 1.02 | 0.342 | 0.321 | 0.36 | 0.34 | 0.325 | 1.2 | 1.24 | 1.26 | 1.19 | 1.08 | 1.04 | 0.922 | 1.03 | 0.913 | 0.899
6 | PC-3 [JPC-3] | 0.998 | 0.883 | 0.876 | – | 0.55 | 0.489 | 0.539 | 0.551 | 0.583 | 0.564 | 0.796 | 0.785 | 0.861 | 0.966 | 0.769 | 0.96 | 0.862 | 0.96 | – | 0.889
7 | HCC-827 | 0.935 | 0.819 | 0.868 | – | 0.685 | 0.505 | 0.472 | 0.424 | 0.505 | 0.467 | 1.02 | 1.01 | 0.985 | 0.909 | 1.03 | 0.969 | 0.866 | 0.905 | – | 0.878
8 | EPLC-272H | 0.929 | 0.505 | 1.03 | 0.94 | 0.947 | 0.284 | 0.317 | 0.312 | 0.306 | 0.303 | – | 1.3 | 1.08 | 1.05 | 0.679 | 1.31 | 0.938 | 1.19 | 1.21 | 1.24
9 | NCI-H2087 | 0.896 | 0.754 | 0.811 | 0.643 | 0.478 | 0.205 | 0.168 | 0.222 | 0.217 | 0.172 | 1.06 | 1.01 | 1.17 | 1.05 | 0.772 | 0.983 | 0.983 | 1 | 0.66 | 0.307
10 | HARA | 1.06 | 1.07 | 1.03 | 0.906 | 0.212 | 0.278 | 0.287 | 0.279 | 0.247 | 0.195 | 1.17 | 1.15 | 1.13 | 1 | 0.443 | 0.982 | 0.955 | 1.05 | 0.973 | 0.209
11 | UMC-11 | 0.718 | 0.594 | 0.643 | 0.602 | 0.314 | 0.359 | 0.336 | 0.347 | 0.308 | 0.318 | 0.356 | 0.312 | 0.322 | 0.301 | 0.234 | 1.06 | 1.18 | 1.02 | 0.987 | 0.399
12 | BEN | 1.07 | 1.1 | 0.885 | 0.821 | 0.796 | 0.466 | 0.449 | 0.475 | 0.446 | 0.463 | 0.0618 | 0.0742 | 0.437 | 0.0692 | 0.0637 | 1.02 | 1.03 | 1.02 | 0.808 | 0.729
13 | EKVX | 1.01 | 0.759 | 1.14 | 0.874 | 0.936 | 0.285 | 0.369 | 0.446 | 0.487 | 0.372 | 0.931 | 0.999 | 0.89 | 1.03 | 0.892 | 1.12 | 0.859 | 0.964 | 0.755 | 0.882
14 | NCI-H1755 | 0.854 | 0.824 | 0.875 | 0.836 | 0.318 | 0.47 | 0.445 | 0.432 | 0.449 | 0.393 | 1.03 | 1.04 | 0.953 | 0.984 | 0.838 | 0.966 | 0.99 | 0.958 | 0.932 | 0.572
15 | NCI-H2126 | 1.03 | 1.05 | 1.03 | 1.03 | 0.777 | 0.415 | 0.394 | 0.378 | 0.32 | 0.387 | 0.946 | 0.935 | 0.899 | 0.897 | 0.839 | 0.734 | 0.693 | 0.717 | 0.652 | 0.673
16 | NCI-H1651 | 0.853 | 0.823 | 0.911 | 0.803 | 0.836 | 0.517 | 0.534 | 0.475 | 0.468 | 0.405 | 1.09 | 1 | 1.13 | 0.976 | 0.849 | 1.2 | 0.805 | 0.982 | 0.808 | 0.249
